{"source": "patent US20120231141A1", "about": "“BITTERNESS-IMPROVING AGENT FOR BITTER FOOD AND DRINK AND ASTRINGENCY-IMPROVING AGENT FOR ASTRINGENT FOOD AND DRINK” (priority 2009, published 2012)", "key": {"[1]": {"test": "Bitterness evaluation of carbonated water (flavor comparison by 10 panelists)", "type": "in vivo", "conditions": "for A: the number of panelists who felt no difference from sedanenolide-free / B: the number of panelists who felt some reduction in bitterness / Flavor judgment: the number of panelists who judged it as most proper bitterness / N: the number of panelists who hardly felt bitterness: 10 panelists", "description": "Sedanenolide was added as a bitterness-improving agent (masking agent for bitterness) of the present invention to sufficiently deaerated pure water at the concentrations shown in the following Table 4, and then carbon dioxide gas was sealed in each bottle at a pressure of 294 KPa to obtain carbonated water of the present invention."}, "[2]": {"test": "Astringency evaluation of green tea drink (flavor comparison by 10 panelists)", "type": "in vivo", "conditions": "for A: the number of panelists who felt no difference from sedanenolide-free / B: the number of panelists who felt some reduction in astringency / Flavor judgment: the number of panelists who judged it as most proper astringency / N: the number of panelists who hardly felt astringency: 10 panelists", "description": "Five thousand grams of hot water (containing 0.03% of sodium ascorbate) of 95° C. was added to 100 g of domestic green tea (second picking tea), followed by extraction for 5 min while sometimes stirring. Subsequently, solid-liquid separation with flannel filter was performed to obtain 4500 g of an extract (Bx 0.7°). This extract was adjusted to Bx 0.5° with deionized water to obtain green tea extract having strong astringency. Sedanenolide was added as a taste-improving agent (masking agent for astringency) of the present invention to the resulting extract at the concentrations shown in the following Table 4 to obtain green tea drinks."}, "[3]": {"conditions": "sedanenolide 0.01 ppb in carbonated water"}, "[4]": {"conditions": "sedanenolide 0.01 ppm in carbonated water"}, "[5]": {"conditions": "sedanenolide 0.1 ppb in carbonated water"}, "[6]": {"conditions": "sedanenolide 0.1 ppm in carbonated water"}, "[7]": {"conditions": "sedanenolide 1 ppb in carbonated water"}, "[8]": {"conditions": "sedanenolide 1 ppm in carbonated water"}, "[9]": {"conditions": "sedanenolide 1 ppt in carbonated water"}, "[10]": {"conditions": "sedanenolide 10 ppm in carbonated water"}, "[11]": {"conditions": "sedanenolide 0.01 ppb in green tea drink having strong astringency"}, "[12]": {"conditions": "sedanenolide 0.01 ppm in green tea drink having strong astringency"}, "[13]": {"conditions": "sedanenolide 0.1 ppb in green tea drink having strong astringency"}, "[14]": {"conditions": "sedanenolide 0.1 ppm in green tea drink having strong astringency"}, "[15]": {"conditions": "sedanenolide 1 ppb in green tea drink having strong astringency"}, "[16]": {"conditions": "sedanenolide 1 ppm in green tea drink having strong astringency"}, "[17]": {"conditions": "sedanenolide 1 ppt in green tea drink having strong astringency"}, "[18]": {"conditions": "sedanenolide 10 ppm in green tea drink having strong astringency"}}}
{"smiles": "CCCC[C@@H]1OC(=O)C2=C1CCC=C2", "note": "[sedanenolide]", "values": [{"measurement": "overall result of bitterness masking", "setting": "[1]; amount of sedanenolide about 0.1 ppb to 1 ppm, carbonated water", "value": "particularly good results were obtained"}, {"measurement": "bitterness of carbonated water (judgment)", "setting": "[1]; carbonated water containing 0.01 ppb to 10 ppm of sedanenolide", "value": "masked"}, {"measurement": "A: the number of panelists who felt no difference from sedanenolide-free", "setting": "[1]; [3]", "value": 7}, {"measurement": "B: the number of panelists who felt some reduction in bitterness", "setting": "[1]; [3]", "value": 3}, {"measurement": "Flavor judgment: the number of panelists who judged it as most proper bitterness", "setting": "[1]; [3]", "value": 0}, {"measurement": "N: the number of panelists who hardly felt bitterness", "setting": "[1]; [3]", "value": 0}, {"measurement": "reduction in bitterness at low concentration", "setting": "[1]; sedanenolide 0.01 ppb, carbonated water", "value": "some panelists felt some reduction in bitterness"}, {"measurement": "A: the number of panelists who felt no difference from sedanenolide-free", "setting": "[1]; [4]", "value": 2}, {"measurement": "B: the number of panelists who felt some reduction in bitterness", "setting": "[1]; [4]", "value": 2}, {"measurement": "Flavor judgment: the number of panelists who judged it as most proper bitterness", "setting": "[1]; [4]", "value": 1}, {"measurement": "N: the number of panelists who hardly felt bitterness", "setting": "[1]; [4]", "value": 6}, {"measurement": "A: the number of panelists who felt no difference from sedanenolide-free", "setting": "[1]; [5]", "value": 5}, {"measurement": "B: the number of panelists who felt some reduction in bitterness", "setting": "[1]; [5]", "value": 5}, {"measurement": "Flavor judgment: the number of panelists who judged it as most proper bitterness", "setting": "[1]; [5]", "value": 0}, {"measurement": "N: the number of panelists who hardly felt bitterness", "setting": "[1]; [5]", "value": 0}, {"measurement": "A: the number of panelists who felt no difference from sedanenolide-free", "setting": "[1]; [6]", "value": 0}, {"measurement": "B: the number of panelists who felt some reduction in bitterness", "setting": "[1]; [6]", "value": 3}, {"measurement": "Flavor judgment: the number of panelists who judged it as most proper bitterness", "setting": "[1]; [6]", "value": 4}, {"measurement": "N: the number of panelists who hardly felt bitterness", "setting": "[1]; [6]", "value": 7}, {"measurement": "A: the number of panelists who felt no difference from sedanenolide-free", "setting": "[1]; [7]", "value": 4}, {"measurement": "B: the number of panelists who felt some reduction in bitterness", "setting": "[1]; [7]", "value": 6}, {"measurement": "Flavor judgment: the number of panelists who judged it as most proper bitterness", "setting": "[1]; [7]", "value": 0}, {"measurement": "N: the number of panelists who hardly felt bitterness", "setting": "[1]; [7]", "value": 0}, {"measurement": "A: the number of panelists who felt no difference from sedanenolide-free", "setting": "[1]; [8]", "value": 0}, {"measurement": "B: the number of panelists who felt some reduction in bitterness", "setting": "[1]; [8]", "value": 3}, {"measurement": "Flavor judgment: the number of panelists who judged it as most proper bitterness", "setting": "[1]; [8]", "value": 5}, {"measurement": "N: the number of panelists who hardly felt bitterness", "setting": "[1]; [8]", "value": 7}, {"measurement": "A: the number of panelists who felt no difference from sedanenolide-free", "setting": "[1]; [9]", "value": 10}, {"measurement": "B: the number of panelists who felt some reduction in bitterness", "setting": "[1]; [9]", "value": 0}, {"measurement": "Flavor judgment: the number of panelists who judged it as most proper bitterness", "setting": "[1]; [9]", "value": 0}, {"measurement": "N: the number of panelists who hardly felt bitterness", "setting": "[1]; [9]", "value": 0}, {"measurement": "A: the number of panelists who felt no difference from sedanenolide-free", "setting": "[1]; [10]", "value": 0}, {"measurement": "B: the number of panelists who felt some reduction in bitterness", "setting": "[1]; [10]", "value": 2}, {"measurement": "Flavor judgment: the number of panelists who judged it as most proper bitterness", "setting": "[1]; [10]", "value": 0}, {"measurement": "N: the number of panelists who hardly felt bitterness", "setting": "[1]; [10]", "value": 8}, {"measurement": "overall result of astringency masking", "setting": "[2]; amount of sedanenolide about 0.1 ppb to 1 ppm, green tea drink", "value": "particularly good results were obtained"}, {"measurement": "astringency of green tea drink (judgment)", "setting": "[2]; green tea drink containing 0.01 ppb to 10 ppm of sedanenolide", "value": "masked"}, {"measurement": "A: the number of panelists who felt no difference from sedanenolide-free", "setting": "[2]; [11]", "value": 8}, {"measurement": "B: the number of panelists who felt some reduction in astringency", "setting": "[2]; [11]", "value": 2}, {"measurement": "Flavor judgment: the number of panelists who judged it as most proper astringency", "setting": "[2]; [11]", "value": 0}, {"measurement": "N: the number of panelists who hardly felt astringency", "setting": "[2]; [11]", "value": 0}, {"measurement": "reduction in bitterness at low concentration", "setting": "[2]; sedanenolide 0.01 ppb, green tea drink having strong astringency", "value": "some panelists felt some reduction in bitterness"}, {"measurement": "A: the number of panelists who felt no difference from sedanenolide-free", "setting": "[2]; [12]", "value": 3}, {"measurement": "B: the number of panelists who felt some reduction in astringency", "setting": "[2]; [12]", "value": 6}, {"measurement": "Flavor judgment: the number of panelists who judged it as most proper astringency", "setting": "[2]; [12]", "value": 2}, {"measurement": "N: the number of panelists who hardly felt astringency", "setting": "[2]; [12]", "value": 1}, {"measurement": "A: the number of panelists who felt no difference from sedanenolide-free", "setting": "[2]; [13]", "value": 6}, {"measurement": "B: the number of panelists who felt some reduction in astringency", "setting": "[2]; [13]", "value": 3}, {"measurement": "Flavor judgment: the number of panelists who judged it as most proper astringency", "setting": "[2]; [13]", "value": 0}, {"measurement": "N: the number of panelists who hardly felt astringency", "setting": "[2]; [13]", "value": 1}, {"measurement": "A: the number of panelists who felt no difference from sedanenolide-free", "setting": "[2]; [14]", "value": 0}, {"measurement": "B: the number of panelists who felt some reduction in astringency", "setting": "[2]; [14]", "value": 3}, {"measurement": "Flavor judgment: the number of panelists who judged it as most proper astringency", "setting": "[2]; [14]", "value": 5}, {"measurement": "N: the number of panelists who hardly felt astringency", "setting": "[2]; [14]", "value": 7}, {"measurement": "A: the number of panelists who felt no difference from sedanenolide-free", "setting": "[2]; [15]", "value": 5}, {"measurement": "B: the number of panelists who felt some reduction in astringency", "setting": "[2]; [15]", "value": 5}, {"measurement": "Flavor judgment: the number of panelists who judged it as most proper astringency", "setting": "[2]; [15]", "value": 0}, {"measurement": "N: the number of panelists who hardly felt astringency", "setting": "[2]; [15]", "value": 0}, {"measurement": "A: the number of panelists who felt no difference from sedanenolide-free", "setting": "[2]; [16]", "value": 0}, {"measurement": "B: the number of panelists who felt some reduction in astringency", "setting": "[2]; [16]", "value": 3}, {"measurement": "Flavor judgment: the number of panelists who judged it as most proper astringency", "setting": "[2]; [16]", "value": 3}, {"measurement": "N: the number of panelists who hardly felt astringency", "setting": "[2]; [16]", "value": 7}, {"measurement": "A: the number of panelists who felt no difference from sedanenolide-free", "setting": "[2]; [17]", "value": 10}, {"measurement": "B: the number of panelists who felt some reduction in astringency", "setting": "[2]; [17]", "value": 0}, {"measurement": "Flavor judgment: the number of panelists who judged it as most proper astringency", "setting": "[2]; [17]", "value": 0}, {"measurement": "N: the number of panelists who hardly felt astringency", "setting": "[2]; [17]", "value": 0}, {"measurement": "A: the number of panelists who felt no difference from sedanenolide-free", "setting": "[2]; [18]", "value": 0}, {"measurement": "B: the number of panelists who felt some reduction in astringency", "setting": "[2]; [18]", "value": 2}, {"measurement": "Flavor judgment: the number of panelists who judged it as most proper astringency", "setting": "[2]; [18]", "value": 0}, {"measurement": "N: the number of panelists who hardly felt astringency", "setting": "[2]; [18]", "value": 8}]}
